# Laboratory results: publication PMC12247020, “A Cyclized Helix‐Loop‐Helix Peptide as a Molecular Scaffold for Cell‐Membrane Permeable Inhibitors for the Interaction Between Estrogen Receptor α and Coactivator SRC1” (Chembiochem, 2025)
# Bridge positions count the residues as written; N and C are the ends. Peptide text beside a SMILES is read from it.
# Columns and labels:
# [1] = system: human ERα and the transcriptional coactivator SRC1; experiment: Yeast reporter assay (lacZ, β‐galactosidase) for ERα–SRC1 antagonism; assay type: cell-based; details: 100 μM peptide, 17β‐estradiol (10 and 100 nM), 18 h, 30 °C
# From the text: The expression plasmids for human ERα and the transcriptional coactivator SRC1 were transformed, along with the lacZ reporter plasmid carrying the estrogen response element (RE).^[ [13] ^] The production of ERα and SRC1 was regulated by the galactose‐inducible GAL1‐10 promoter. In response to 17β‐estradiol, ERα, and SRC1 formed a complex on the RE, inducing the ligand‐dependent expression of β‐galactosidase (Figure S8, Supporting Information). The genes encoding the major cell wall mannoproteins Cwp1p and Cwp2p were deleted,^[ [30] ^] probably allowing the cHLH peptides to access the cell membrane by passing through the less dense cell wall of the yeast strain.^[ [32] ^] The effect of the cHLH peptide on the ERα–SRC1 interaction was examined in the presence of 17β‐estradiol (10 and 100 nM).
# As previously reported,^[ [30] ^] the yeast strain ERα cwp1Δcwp2Δ was cultured on agar plates with synthetic dextrose (glucose) complete (SDC) dropout medium lacking tryptophan, leucine, and uracil (SDC‐Trp, Leu, Ura; 2% glucose, 2% agar) for single colony isolation. […] Absorbance at wavelengths of 405 and 595 nm was measured using Model 680 Microplate Reader (BioRad Lab., Inc.) to estimate the β‐galactosidase activity as the amount of o‐nitrophenol (ONP) produced and yeast cell density, respectively. The relative β‐galactosidase activity in each well was calculated as A405/A595. […]
# [2] = system: MCF‐7 breast cancer cells; experiment: WST‐1 cell viability assay, 17β‐estradiol‐dependent proliferation; assay type: cell-based; details: WST‐1 assay, 3.125 to 25 μM peptide, 10 nM 17β‐estradiol, 72 h
# Protocol: Next, we examined the inhibitory activities of the peptides for the 17β‐estradiol‐dependent proliferation of MCF‐7 breast cancer cells using the WST‐1 assay (Figure 2D). The MCF‐7 cells were incubated with the serially diluted peptides cHLH‐ERα or YT1‐RS in the presence of 10 nM 17β‐estradiol.
# For cell viability assay,^[ [35] ^] ER‐positive MCF‐7 cancer cells were grown in the recommended media Dulbecco's modified Eagle medium (DMEM) supplemented with 10% heat‐inactivated fetal bovine serum and with 1% penicillin–streptomycin (Gibco) in a humidified environment with 5% CO2. These cells were incubated in 96‐well plates (Corning) at 5,000 cells/well and cultured for 24 h. The cells were treated with 10 nM 17β‐estradiol for 1 h, then a various concentrations of peptides were added. After culturing the cells for 72 h, the proliferation f cells was measured by using WST‐1 reagent (Roche) according to the standard protocols. The absorbance was measured by using a microplate reader (Model 680, Bio‐Rad). Reliability of the cell viability assay was confirmed by using Tamoxifen (nacalai tesque) as a control.
# [3] = target: T1, interaction between ERα/LBD and FL‐SRC1Box2 (Homo sapiens, UniProt P03372); experiment: FP competition: inhibition of the ERα/LBD–FL‐SRC1Box2 interaction; assay type: binding; details: ERα/LBD 20 μM, four parameter logistic equation (Fig S5C)
# T1 construct: Recombinant ERα/LBD (ERα^302–552) was prepared as previously reported; made in house; host or cells: Escherichia coli BL21-CodonPlus-RP (ERα LBD); the probe is a synthetic peptide
# T1 sequence (P03372 302-552): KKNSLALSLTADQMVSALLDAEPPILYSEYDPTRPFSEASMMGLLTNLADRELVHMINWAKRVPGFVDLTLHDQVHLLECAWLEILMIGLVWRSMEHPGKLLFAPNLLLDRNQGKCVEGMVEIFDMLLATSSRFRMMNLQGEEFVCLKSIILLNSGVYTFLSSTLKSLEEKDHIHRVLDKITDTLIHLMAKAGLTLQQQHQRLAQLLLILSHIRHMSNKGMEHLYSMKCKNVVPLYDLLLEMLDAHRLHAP
# Protocol: The binding activity of cHLH‐ERα was examined by fluorescence polarization (FP) analysis.^[ [26], [29] ^] The cHLH peptides were labeled with tetramethylrhodamine (TMR) to provide the fluorescent cHLH peptide TMR‐cHLH‐ERα, and fluorescent TMR‐YT1‐RS as a negative control (Figure 1, Figure S2, Supporting Information).
# 4. Fluorescence Polarization
# The binding activity of the ERα-LBD was examined with 20 nM FL-SRC1Box2 (CH3CO- […]
# C(FL)[…]-NH2; FL: Fluorescein) with 10 µM 17β-estradiol in 20 mM
# Tris-HCl (pH 8.0), 25 mM NaCl, 10%(v/v) Glycerol, 1 mM TCEP as described. The concentration of FL-SRC1Box2 labeled with Fluorescein and TMR-cHLH-ERα and YT1-RS were determined from the absorption of Fluorescein or Tetramethylrhodamine. The respective peptide was incubated with ERα-LBD for 30 min in 20 mM Tris-HCl (pH 8.0), 25 mM NaCl with 1 mM 17β-estradiol, and the mixture was transferred into a 384-well microtiter well (Non-binding, Black, greiner bio -one) and the fluorescence polarization was measured on a spectrofluorometer (SpectraMax iD5, Molecular Devices) at 20 °C. The KD values were analyzed via a quadratic binding equation (Fig S5A, S5B) with the data fit to calculate by using KaleidaGraph 4.0 as described elsewhere. The IC50 value was estimated as 7.1 µM derived from four parameter logistic equation (Fig. S 5C). […]
compound,measurement,setting,value
CC(C)C[C@@H]1NC(=O)[C@H](C)NC(=O)[C@H](C)NC(=O)[C@H](CC(C)C)NC(=O)[C@H](CCCCN)NC(=O)CNC(=O)CNC(=O)CNC(=O)CNC(=O)CNC(=O)CNC(=O)CNC(=O)[C@H](CCC(=O)O)NC(=O)[C@H](CC(C)C)NC(=O)[C@H](CCCNC(=N)N)NC(=O)[C@H](CCCNC(=N)N)NC(=O)[C@H](CC(C)C)NC(=O)[C@H](CCC(=O)O)NC(=O)[C@H](CCCNC(=N)N)NC(=O)[C@H](CCC(=O)O)NC(=O)[C@H](CC(C)C)NC(=O)[C@H](CCCNC(=N)N)NC(=O)[C@H](CCCNC(=N)N)NC(=O)[C@H](CC(C)C)NC(=O)[C@H](CCC(=O)O)NC(=O)[C@H](CCCNC(=N)N)NC(=O)[C@H](C)NC(=O)CNC(=O)CSC[C@@H](C(N)=O)NC(=O)[C@H](Cc2ccc(O)cc2)NC(=O)[C@H](C)NC(=O)[C@H](CCCCN)NC(=O)[C@H](CC(C)C)NC(=O)[C@H](CC(C)C)NC(=O)[C@H](CC(C)C)NC(=O)[C@H](CC(C)C)NC(=O)[C@H](CCCCN)NC(=O)[C@H](CC(C)C)NC(=O)[C@H](CCCCN)NC1=O [cHLH‐ERα] ({CH2CO}-GARELRRLERELRRLEGGGGGGGKLAALKLKLLLLKAYC-NH2; thioether N-39),inhibition of transcriptional activity (β‐galactosidase) in yeast reporter assay,[1],significantly inhibited transcriptional activity
same,inhibitory activity for the 17β‐estradiol‐dependent proliferation of MCF‐7 cells,[2],inhibited the proliferation of MCF‐7 cells dose‐dependently
same,IC50,[3],7.1 µM
